Calls of active or inactive are those of the source. How the calls were made is not given here. Where only a bound is given, the exact number is not on record here.

One may read the Kd as the concentration at which binding is half-saturated.

For this assay, the target named is Serine/threonine-protein kinase mTOR (Homo sapiens) (UniProt P42345). Briefly: mTOR FRB domain ligand binding – biophysical, NMR (AID 1648). The note with it: NMR binding to FRB domain, chemical shift.
Sequence of Serine/threonine-protein kinase mTOR (Homo sapiens) (P42345 2015-2114): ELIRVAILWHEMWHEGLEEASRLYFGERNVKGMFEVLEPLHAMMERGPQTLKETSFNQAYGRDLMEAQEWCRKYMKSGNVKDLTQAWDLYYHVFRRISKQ

Consider `O=C(Nc1cccnc1)c1ccc(Br)s1`, for which the Kd was > 4 mM (inactive).
For `O=C1C2C3C=CC(C3)C2C(=O)N1c1cccnc1` (configuration not stated), the Kd was > 4 mM (inactive).
Under `Nc1ccc(-c2cnco2)cc1` stands > 4 mM (inactive).
Under `CCN(CC)S(=O)(=O)c1cccc2nsnc12` stands > 4 mM (inactive); under `Cc1cc(C(=O)Nc2cccnc2)cs1`, > 4 mM (inactive); under `O=C(O)C1CC(=O)N(CCc2ccc(Cl)cc2)C1` (configuration not stated), > 4 mM (inactive).
Under `Nc1ccccc1OC(F)(F)F` stands > 4 mM (inactive).
Turning to `O=C(O)c1ccc2occc2c1`, the Kd was > 4 mM (inactive).
For `N#Cc1cnn(-c2ccc(Cl)cc2)c1N` the value was > 4 mM (inactive); for `C[n+]1ccn(C/C(N)=N/O)c1`, > 4 mM (inactive).
As to `Oc1ccccc1-c1cc(C(F)(F)F)[nH]n1`, the Kd is > 4 mM (inactive).
Under `Cc1ccc2nc(SCC(=O)O)nc(C)c2c1` stands > 4 mM (inactive); under `C[C@@H]1OC(O[C@H]2C(O[C@H]3CC[C@@]4(C)C(CC[C@]5(C)C4CC=C4C6CC(C)(C)CC[C@]6(C(=O)O)CC[C@]45C)[C@]3(C)CO)OC[C@H](O)[C@@H]2O)[C@H](O)[C@H](O)[C@H]1O` (some centres not stated), > 4 mM (inactive).
Regarding `O=c1[nH]c(O)c(C=NC2CC2)c(=O)[nH]1`, the Kd is > 4 mM (inactive).
Regarding `O=C(O)c1cncc(-c2cccs2)c1`, the Kd is > 4 mM (inactive).
Under `Nc1cccc(S(=O)(=O)N2CCCC2)c1` stands > 4 mM (inactive).
As for `O=C(CSc1ccccc1)N1CCC2(CC1)OCCO2`, the Kd is > 4 mM (inactive).
For the compound `O=C(O)c1cc2ccccc2s1`, the Kd was > 4 mM (inactive).
Under `Cc1n[nH]c(=O)c2ncn(C)c12` stands > 4 mM (inactive); under `Cc1ccc(S(C)(=O)=O)s1`, > 4 mM (inactive).
As to `CCN1CCc2c(sc(N)c2C(N)=O)C1`, the Kd is > 4 mM (inactive).
Regarding `Cc1c(C(=O)NC2=NCCS2)oc2ccccc12`, the Kd was > 4 mM (inactive).
For `CC(=O)OCc1cc(=O)n(C)c(=O)n1C`, the Kd is > 4 mM (inactive).
Under `CN(C)S(=O)(=O)N1CCc2ccccc21` stands > 4 mM (inactive); under `C=C[C@H]1CN2CC[C@H]1C[C@@H]2[C@@H](O)c1ccnc2ccc(OC)cc12`, > 4 mM (inactive); under `CCN1C[C@@]2(COC)C3[C@@H](OC)[C@H]4[C@@H]1[C@]3(C(OC)C[C@H]2O)C1C[C@@]2(O)[C@H](OC(=O)c3ccccc3)C1[C@]4(OC(C)=O)[C@@H](O)[C@@H]2OC` (some centres not stated), > 4 mM (inactive).
Consider `Cc1onc(-c2ccccc2)c1CN`, for which the Kd is > 4 mM (inactive).
For `NC(=O)CN1CCCCCC1=O` the value was > 4 mM (inactive).
For `COC(=O)C1CSCC1=O` (configuration not stated), the Kd was > 4 mM (inactive).
Take `CC(C)(OC(=O)c1ccccc1)[C@@H]1Cc2cc3ccc(=O)oc3cc2O1`: the Kd was > 4 mM (inactive).
On to `O=C(Nc1ccc(F)cc1F)c1ccco1`, for which the Kd was > 4 mM (inactive).
As to `COc1ccccc1NC(=O)NC(N)=O`, the Kd was > 4 mM (inactive).
With `C=CCn1c(=S)[nH]c2ccc(Br)cc2c1=O`, the Kd is > 4 mM (inactive).
Consider `CC(=O)CS(=O)(=O)c1ccccc1`, for which the Kd is > 4 mM (inactive).
Turning to `Cc1cc(NC(=O)Cc2c(F)cccc2Cl)no1`, the Kd was > 4 mM (inactive).
For `COc1ccc([C@@H]2CC(=O)c3c(O)cc(O)cc3O2)cc1O` the value was > 4 mM (inactive); for `COC(=O)c1nc(-c2ccccc2)oc1N(C)C`, > 4 mM (inactive); for `O=c1c(O)c(-c2ccccc2)oc2ccccc12`, > 4 mM (inactive).
For `Nc1c(S(=O)(=O)c2ccccc2)csc1C(=O)O` the value was > 4 mM (inactive).
As to `Cc1ncoc1C(=O)Nc1ccccc1C(N)=O`, the Kd is > 4 mM (inactive).
For `CC(=O)c1sc2nc(N)nn2c1C`, the Kd is > 4 mM (inactive).
Under `CNC(=S)NCCN1CCOCC1` stands > 4 mM (inactive); under `CCCCCCCCCCCCCCC(C(=O)OC)C(O)(CC(=O)OC)C(=O)OC` (configuration not stated), > 4 mM (inactive); under `O=C(O)Cc1csc(-c2ccccc2)n1`, > 4 mM (inactive).
As for `COc1ccc2c(c1O)-c1c(OC)c(OC)cc3c1[C@H](C2)N(C)CC3`, the Kd is > 4 mM (inactive).
Under `Cc1ccc(CN2CCNC(=O)C2CC(=O)O)o1` (configuration not stated) stands > 4 mM (inactive); under `Fc1ccc(F)c(CN2CCN(c3ncccn3)CC2)c1`, > 4 mM (inactive); under `O=C(O)c1cccnc1N1CCCC1`, > 4 mM (inactive).
For `COc1ccc(/C=C2\NC(=S)N(C)C2=O)cc1O` the value was > 4 mM (inactive); for `CC1CCCN(C/C(O)=C(\C#N)c2nc3ccccc3[nH]2)C1` (configuration not stated), > 4 mM (inactive).
As to `CN(C)C(=O)c1ccccc1-c1ccccc1`, the Kd was > 4 mM (inactive).
With `C=C1CCC2C(CC2(C)C)C(=O)CCC1O` (configuration not stated), the Kd is > 4 mM (inactive).
For `CN1CCC(NC(=O)c2ccccc2[N+](=O)[O-])CC1`, the Kd is > 4 mM (inactive).
Under `COc1cc(OC)c(-c2c(OC)cc(OC)cc2OC)c(OC)c1` stands > 4 mM (inactive); under `CCNC(=S)N1CCCC(C(N)=O)C1` (configuration not stated), > 4 mM (inactive).
For `CC(CO)NC(=O)C1C=C2c3cccc4[nH]cc(c34)C[C@H]2N(C)C1` (some centres not stated) the value was > 4 mM (inactive).
For `NC(=O)c1cccc(Cl)n1` the value was > 4 mM (inactive); for `Cc1ccc(N2C(=O)CCC2=O)cc1`, > 4 mM (inactive); for `O=Cc1c(N2CCOCC2)nc2ccccn2c1=O`, > 4 mM (inactive).
`Cc1noc(C)c1C(=O)NCc1ccco1`: the Kd was > 4 mM (inactive).
Under `CS(=O)(=O)N1CCN(c2ncccn2)CC1` stands > 4 mM (inactive).
Under `O=S(=O)(N1CCOCC1)n1nnc2ccccc21` stands > 4 mM (inactive); under `Nc1ccc2[nH]ncc2c1`, > 4 mM (inactive); under `O=C(O)c1csc(-c2cccs2)n1`, > 4 mM (inactive).
For `CN1C(=O)C(Cc2c[nH]c3ccccc23)C(=O)N(C)C1=O`, the Kd is > 4 mM (inactive).
For `COc1ccc(C(O)c2nccn2C)cc1` (configuration not stated) the value was > 4 mM (inactive); for `Cc1cc(=O)c2c(O)c(C)c(O)cc2o1`, > 4 mM (inactive).
Under `CC(=O)O[C@@H]1CC2C(C)(C)[C@H](O)CC[C@]2(C)C2CC[C@@]3(C)[C@H](c4ccoc4)OC(=O)C4OC43[C@@]21C` (some centres not stated) stands > 4 mM (inactive); under `O=C(Nc1ccon1)c1cccc(C(F)(F)F)c1`, > 4 mM (inactive); under `O=C(CSc1ccnc(=O)[nH]1)NCc1ccccc1`, > 4 mM (inactive).
Under `COC(=O)c1cn(C(=O)OC)c2ccccc12` stands > 4 mM (inactive); under `Cc1c(CCO)c(=O)n2c([nH]c3ccccc32)c1C#N`, > 4 mM (inactive).
In the case of `O=c1[nH]cc(S(=O)(=O)Nc2ccccc2)c(=O)[nH]1`, the Kd was > 4 mM (inactive).
In the case of `CCC1C(=O)OCC1Cc1cncn1C` (configuration not stated), the Kd is > 4 mM (inactive).
Under `Nc1ccc2c(c1)COc1ccccc1O2` stands > 4 mM (inactive); under `O=C1NC(=S)N/C1=C/c1ccc(O)c(Cl)c1`, > 4 mM (inactive); under `Cc1noc(C)c1C(=O)Nc1ccccn1`, > 4 mM (inactive).
For `NC(=O)C1CCN(c2ccc(Cl)nn2)CC1` the value was > 4 mM (inactive); for `Cn1[nH]c2nc3[nH]n(C)c(=O)c3c(-c3ccccc3)c2c1=O`, > 4 mM (inactive); for `CN1C2CC3C[C@H]1C(O3)C2O` (some centres not stated), > 4 mM (inactive).
Under `NC(=O)Cc1nc(-c2ccc(F)cc2)cs1` stands > 4 mM (inactive).
For the compound `O=C(O)CNc1ncnc2nc[nH]c12`, the Kd is > 4 mM (inactive).
With `CC(=O)Nc1nc(C)c(C(C)=O)s1`, the Kd was > 4 mM (inactive).
Turning to `N#Cc1c[nH]n2c(=O)cc(Cc3ccccc3)nc12`, the Kd was > 4 mM (inactive).
For `O=C1CCC([N+](=O)[O-])C(c2ccccc2F)N1` (configuration not stated) the value was > 4 mM (inactive); for `Cn1nc(C(=O)Nc2cccnc2)c2ccccc2c1=O`, > 4 mM (inactive); for `Cn1cnnc1Sc1ncnc(N)c1[N+](=O)[O-]`, > 4 mM (inactive).
Under `CCOc1ccc(C(=O)c2ccncc2)cc1` stands > 4 mM (inactive); under `O=C(O)c1cccc(N2C(=O)C3CC=CCC3C2=O)c1` (configuration not stated), > 4 mM (inactive); under `CCn1cnc2sc(C(=O)O)c(C)c2c1=O`, > 4 mM (inactive).
Turning to `CC(=O)Nc1sc(C)c(C)c1C(N)=O`, the Kd is > 4 mM (inactive).
Take `O=C(O)CSc1cccc2cccnc12`: the Kd is > 4 mM (inactive).
Under `S=C(NCC1CCCO1)NC1CC1` (configuration not stated) stands > 4 mM (inactive).
Under `O=C(O)c1csc(-c2ccccc2)n1` stands > 4 mM (inactive).
`C/C=C(\C)C(=O)O[C@H]1C[C@@H](OC(C)=O)[C@@]2(C(=O)OC)CO[C@@H]3C2[C@]12CO[C@](O)(C(=O)OC)[C@H]2[C@](C)(C12O[C@@]1(C)[C@H]1C[C@@H]2OC2OC=C[C@@]21O)[C@@H]3O` (some centres not stated): the Kd was > 4 mM (inactive).
Under `O=[n+]1cc(-c2ccccc2)n([O-])c2c1CCC2` stands > 4 mM (inactive); under `COc1cc(N)ccc1NC(=O)c1cccs1`, > 4 mM (inactive); under `O=C(Nc1ccccc1C(F)(F)F)N1CCCCCC1`, > 4 mM (inactive).
For `CC(C)=CCOc1c2occc2cc2ccc(=O)oc12` the value was > 4 mM (inactive); for `NCC1COc2ccccc2O1` (configuration not stated), > 4 mM (inactive).
For the compound `O=C(O)CCC(=O)c1cccc2ccccc12`, the Kd is > 4 mM (inactive).
Take `CN1CCC(NC(=O)c2cnccn2)CC1`: the Kd is > 4 mM (inactive).

The record behind these values is PubChem BioAssay AID1648 (Sanford-Burnham Center for Chemical Genomics, 2009).
